According to patent US20160120915A1, “METHODS FOR MANIPULATING IMMUNE RESPONSES BY ALTERING MICROBIOTA” (NEW YORK UNIVERSITY, priority 2013, published 2016):
Counter-ions that a name gives are not always drawn.

Columns and labels:
terminal ileum = test: PAT: ileal expression by qPCR in 6-week mice; type: in vivo, C57BL/6 mice; settings: 6-week male mice, 3 pulses, vs control, p<0.05
ileum = test: TRANSTAT: ileal expression by qPCR in 18-week microbiota donor mice; type: in vivo, C57BL6J mice; settings: 18-week STAT-donor mice vs control donors
Description: Total RNA was extracted from mouse tissues using the RNeasy Mini Kit (Qiagen), according to the manufacturer's instructions. Total RNA was reverse transcribed to cDNA using the Verso™ cDNA Synthesis Kit (Thermo Scientific). To generate standards for expression analysis of each target gene, the cDNA region of interest was PCR-amplified and the PCR product was cloned into pGEM-T easy (Promega). qPCR was performed with LightCycler 480 SYBR Green I Master mix (Roche) and run in a LightCycler 480 system (Roche). Target mRNA was normalized to GAPDH mRNA as an internal control in each sample.
C57BL/6J (Jackson Labs, Bar Harbor, Me.) mice either received no antibiotics (control) or continuous STAT penicillin. Mice were weaned at 4 weeks onto normal chow (13.2% fat, 5053 PicoLab Rodent Diet 20, LabDiet, Brentwood, Mo.), then changed to a high fat diet (45% kcal from fat, D12451, Research Diets, New Brunswick, N.J.) at 6 weeks of life. At 18 weeks of age, from each group (Control, n=9; STAT, n=8), the three animals with weight at or closest to the median were selected as cecal content donors. Donor mice were humanely euthanized, and the proximal ⅓ of the cecum was aseptically removed and after a series of processing steps, either the pooled Control or STAT microbiota suspensions were placed in the stomachs of the germ-free recipients (Control, n=7 recipients; STAT, n=8) by oral gavage. Recipients were chosen randomly, and the inoculum alternated between control and STAT recipients. […] The microbiota-recipient mice were housed in autoclaved cages, under specific pathogen-free conditions, and fed an irradiated high fat diet (45% kcal from fat, D12451, Research Diets, New Brunswick, N.J.), and followed for the next 35 days until sacrifice. Fecal pellets were collected serially from the time of transfer.
Mice were fed normal chow, then switched to high fat diet at 6 weeks of age. At 18 weeks, cecal contents were collected from 3 control and 3 STAT mice, based on their median weight, pooled, and transferred to 3-4 week old germ-free Swiss Webster mice by oral gavage. Every attempt was made to maintain viability of the microbiota by protecting the microbiota from oxygen and minimizing time between microbiota collection and transfer. Microbiota recipient mice were monitored for 5 weeks, then ileal samples were collected to assess immunity by flow cytometry and qPCR. Ileal gene expression was also measured by microarray and Nanostring Immunology Panel (FIG. 13).
Expression levels were measured by qPCR and normalized by GAPDH expression.

[1] = tested on: 547 genes related to immunology in ileal tissue; test: Ileal gene expression profiling via Nanostring Immunology Panel, STAT; type: in vivo, C57BL6J mice; settings: for Significant Changes Down (ileal Nanostring) / Significant Changes Total (ileal Nanostring) / Significant Changes Up (ileal Nanostring): 8-week old mice
Description: RNA was extracted from ileal tissue using the miRNeasy mini kit (Qiagen, Redwood City, Calif., USA) at 8 weeks of age and the expression levels of 547 genes related to immunology were measured by nCounter GX Mouse Immunology Kit (Nanostring Technologies, Seattle, Wash., USA). Significant differences between treatment and control were determined by t-test. For functional characterization, the significant changes were analyzed by Ingenuity Pathway Analysis (Qiagen, Redwood City, Calif.).
Specifically, STAT decreased 111 and 74 genes and increased only 1 and 7 genes in male and female mice, respectively, with numerous consistencies across gender (FIG. 10A-C and Table 2).

[2] = tested on: Candidatus Arthromitus (segmented filamentous bacteria, SFB); test: SFB relative abundance by 16S rRNA sequencing in microbiota donors; type: in vivo, C57BL6J mice; settings: STAT donors, all time points
Excerpt: As above, mice were weaned onto normal chow at 4 weeks and switched to HFD at 6 weeks of age. Cecal microbiota was collected at 18 weeks of age and transferred to 3 to 4-week old germ-free Swiss-Webster mice, which were then housed in specific pathogen-free (SPF) conditions and fed HFD. Longitudinal fecal samples were collected and microbial communities were profiled by 16S rRNA sequencing using standard universal primers (Caporaso et al., ISMEJ 2012, 8:1621-4) at an average depth of approximately 5,800 sequences per sample.
Taxonomy was assigned based on the Green Genes May 2013 database, and the percentage of sequences classified as Candidatus Arthromitus, the candidate genus name for segmented filamentous bacteria (SFB), was calculated. […] SFB was present in all 3 control donor mice at levels >1%. SFB was undetectable in STAT donors at all time points, and in the Control donors following the switch to a HFD (8 weeks and beyond). SFB was nearly undetectable in microbiota recipients. Only one STAT-recipient mouse had SFB detected, and it was only one sequence that was classified as SFB out of 7,657 total sequences. SFB was not detected in any of the 7 Control or the other 7 STAT microbiota-recipients. […] Other microbiota taxa are thus important in the transferred phenotype.

## CC[C@H]1OC(=O)C[C@@H](O)[C@H](C)[C@@H](O[C@@H]2O[C@H](C)[C@@H](O[C@H]3C[C@@](C)(O)[C@@H](O)[C@H](C)O3)[C@H](N(C)C)[C@H]2O)[C@@H](CC=O)C[C@@H](C)C(=O)/C=C/C(C)=C/[C@@H]1CO[C@@H]1O[C@H](C)[C@@H](O)[C@@H](OC)[C@H]1OC [Tylosin, Tylosin tartrate]
Terminal ileum
  ileal Relmβ expression: significantly lower

## CC1(C)S[C@@H]2[C@H](NC(=O)COc3ccccc3)C(=O)N2[C@H]1C(=O)[O-].[K+] [STAT, penicillin VK]
ileum
  ileal expression of IL-17A: significantly down-regulated
  ileal expression of IL-17F: downward trend
  ileal expression of RORγt: downward trend
  ileal expression of Reg3γ: significantly down-regulated
  ileal expression of defensin β1: significantly down-regulated
[1]; STAT-Female vs control
  Significant Changes Down (ileal Nanostring): 74
  Significant Changes Total (ileal Nanostring): 81
  Significant Changes Up (ileal Nanostring): 7
[1]; STAT-Male vs control
  Significant Changes Down (ileal Nanostring): 111
  Significant Changes Total (ileal Nanostring): 112
[1]; STAT-Male vs control, n=4 per group, t-test <0.05
  Significant Changes Up (ileal Nanostring): 1
[1]; Shared: STAT-F + Recip-F
  Significant Changes Down, shared: 1
  Significant Changes Total, shared: 1
  Significant Changes Up, shared: 0
[1]; Shared: STAT-M + Recip-F
  Significant Changes Down, shared: 3
  Significant Changes Total, shared: 3
  Significant Changes Up, shared: 0
[1]; Shared: STAT-M + STAT-F
  Significant Changes Down, shared: 37
  Significant Changes Total, shared: 37
  Significant Changes Up, shared: 0
[2]
  SFB relative abundance: undetectable
